{"source": "paper PMC12165799", "about": "“Antimicrobial peptide developed with machine learning sequence optimization targets drug resistant Staphylococcus aureus in mice” (The Journal of Clinical Investigation, 2025)", "key": {"S. aureus MW2": {"tested_on": "S. aureus MW2", "assay": "RNAseq differential gene expression", "format": "cell-based, Staphylococcus aureus", "details": "0.5× MIC, 30 min", "description": "553 For RNAseq studies, we followed the recommended procedure by Novogene (Sacramento,\n554 CA, USA) (22). In brief, we used exponential cultures of S. aureus MW2 grown in TSB medium\n555 adjusted to OD600=0.4. We treated 10 ml of the bacterial culture with 0.5× MIC of CIT-8 or water\n556 (as a negative control) for 30 min at 37°C (180 rpm). After that, we washed the bacteria three times\n557 with PBS and stored the pellet at -80°C. We isolated total RNA from the pellet and checked the\n558 purity using the NanoPhotometer® spectrophotometer (Implen, CA, USA). We assessed RNA\n559 integrity and concentration using the RNA Nano 6000 Assay Kit following manufacturer\n560 instructions in a Bioanalyzer 2100 system (Agilent Technologies, CA, USA). We evaluated RNA\n561 degradation and contamination on 1% agarose gels. To prepare libraries for transcriptome\n562 sequencing, we used 1 µg RNA per sample as input material and generated sequencing libraries\n563 using NEBNext® UltraTM RNA Library Prep Kit for Illumina® (NEB, MA, USA) following\n564 manufacturer’s recommendations and added index codes to attribute sequences to each sample.\n565 Briefly, we purified mRNA from total RNA using poly-T oligo-attached magnetic beads, followed\n566 by fragmentation using divalent cations under elevated temperature in NEBNext First Strand\n567 Synthesis Reaction Buffer (5×). To synthesize cDNA, we used random hexamer primers and M-\n568 MuLV Reverse Transcriptase (RNase H-) to create the first strand, followed by DNA Polymerase\n569 I and RNase H to create the second strand (23). The remaining overhangs were converted into\n570 blunt ends using exonuclease/polymerase activities. We adenylated the 3’ ends of the DNA\n571 fragments, and further ligated NEBNext Adaptors with hairpin loop structures to prepare for\n572 hybridization. To select cDNA fragments of preferred length (150-200 bp), we purified the whole\n573 library fragments with AMPure XP system (Beckman Coulter, CA, USA). Next, to the size-\n574 selected, adaptor ligated cDNA, we added 3 µl USER Enzyme (NEB, MA, USA) at 37°C for 15\n575 min followed by 5 min at 95°C before carrying out the polymerase chain reaction (PCR). We\n576 performed the PCR with Phusion High-Fidelity DNA polymerase, Universal PCR primers, and\n577 Index (X) Primer. Finally, we purified the PCR products with an AMPure XP system (Beckman\n578 Coulter, CA, USA) and library quality was assessed on the Agilent Bioanalyzer 2100 system\n579 (Agilent Technologies, CA, USA). […]"}, "[1]": {"tested_on": "S. aureus VRS1 (VRSA) exponential and persister cells", "assay": "S. aureus persister cell and time-kill assays (VRS1)", "format": "cell-based, Staphylococcus aureus", "details": "10 × MIC", "description": "305 Minimal inhibitory concentration (MIC) assay\nWe made serial dilutions of 10×\nWe determined the MIC using OD600\nAccordingly, we added 150 mM NaCl,\n319 established protocol (5).\n323 aureus VRS1) in PBS. To assess the killing kinetics of CIT-8 in persister cells, we added 1 ml of\n324 cell suspension to the wells of a 2-ml deep-well assay block (Cat no. 3960, Corning, NY, USA)\nWe also included ciprofloxacin (at 10 μg/ml) for S.\n326 aureus MW2 and linezolid (100 μg/ml) for S. aureus VRS1 as antibiotic controls. Additionally,\n327 we included bithionol (at 10 μg/ml) as a positive control, known for its ability to kill stationary\n328 phase persister cells (6). We incubated the plates at 37°C, with shaking at 225 rpm. At specific\n329 times (0, 15, 30, 60, and 120 min), we collected 10 μl samples, diluted them serially, and then\n330 plated them on tryptic soy agar (TSA) (BD Difco, NJ, USA) plates. We incubated the TSA plates\n331 for 18 hours at 37°C for colony counting. We performed these experiments in duplicate. As a\n332 comparison, we prepared the exponential cells of S. aureus MW2 and VRS1 in PBS and analyzed\n333 their killing kinetics in the same manner as described for persister cells."}, "[2]": {"assay": "HPLC retention time on C18 reverse-phase column", "format": "physicochemical", "text": "Table 1 Physical parameters and minimal inhibitory concentrations of citropin 1.1-derived peptides against S. aureus MW2 | column: rT^D (min)"}}, "note": "Where two headings read alike, the source gives them in different places."}
{"substance": "H-GLFKVIKKLLKVI-NH2 [CIT-8]", "values": [{"measurement": "Downregulation of tRNAGln", "setting": "S. aureus MW2", "result": 8.5, "unit": "fold"}, {"measurement": "Downregulation of tRNAarg", "setting": "S. aureus MW2", "result": 7.7, "unit": "fold"}, {"measurement": "Downregulation of tRNAcys", "setting": "S. aureus MW2", "result": 6.8, "unit": "fold"}, {"measurement": "Downregulation of tRNAser", "setting": "S. aureus MW2", "result": 8.4, "unit": "fold"}, {"measurement": "Upregulation of pdxS", "setting": "S. aureus MW2", "result": 5.3, "unit": "fold"}, {"measurement": "Upregulation of purH", "setting": "S. aureus MW2", "result": 3.6, "unit": "fold"}, {"measurement": "Upregulation of purL", "setting": "S. aureus MW2", "result": 5.2, "unit": "fold"}, {"measurement": "Upregulation of purQ", "setting": "S. aureus MW2", "result": 5.0, "unit": "fold"}, {"measurement": "Upregulation of purS", "setting": "S. aureus MW2", "result": 5.0, "unit": "fold"}, {"measurement": "Number of genes downregulated by at least 2-fold", "setting": "S. aureus MW2; P < 0.05", "result": 267, "unit": "genes"}, {"measurement": "Number of genes upregulated by more than 2-fold", "setting": "S. aureus MW2; P < 0.05", "result": 179, "unit": "genes"}, {"measurement": "Time to eradication of exponential and VRSA persister cells", "setting": "[1]", "result": "≤ 120", "unit": "min"}, {"measurement": "rT (HPLC retention time)", "setting": "[2]", "result": 22.465, "unit": "min"}, {"measurement": "MIC", "setting": "S. aureus isolates; S. aureus AR0215 (VISA)", "result": 4, "unit": "µg/mL"}, {"measurement": "MIC", "setting": "S. aureus isolates; S. aureus AR0216 (VISA)", "result": 8, "unit": "µg/mL"}, {"measurement": "MIC", "setting": "S. aureus isolates; S. aureus AR0217 (VISA)", "result": 4, "unit": "µg/mL"}, {"measurement": "MIC", "setting": "S. aureus isolates; S. aureus AR0219 (VISA)", "result": 8, "unit": "µg/mL"}, {"measurement": "MIC", "setting": "S. aureus isolates; S. aureus AR0225 (VISA)", "result": 4, "unit": "µg/mL"}, {"measurement": "MIC", "setting": "S. aureus isolates; S. aureus BF1 (clinical isolate)", "result": 4, "unit": "µg/mL"}, {"measurement": "MIC", "setting": "S. aureus isolates; S. aureus BF2 (clinical isolate)", "result": 8, "unit": "µg/mL"}, {"measurement": "MIC", "setting": "S. aureus isolates; S. aureus BF3 (clinical isolate)", "result": 8, "unit": "µg/mL"}, {"measurement": "MIC", "setting": "S. aureus isolates; S. aureus BF4 (clinical isolate)", "result": 4, "unit": "µg/mL"}, {"measurement": "MIC", "setting": "S. aureus isolates; S. aureus BF5 (clinical isolate)", "result": 4, "unit": "µg/mL"}, {"measurement": "MIC", "setting": "S. aureus isolates; S. aureus BF6 (clinical isolate)", "result": 4, "unit": "µg/mL"}, {"measurement": "MIC", "setting": "S. aureus isolates; S. aureus BF7 (clinical isolate)", "result": 4, "unit": "µg/mL"}, {"measurement": "MIC", "setting": "S. aureus isolates; S. aureus BF8 (clinical isolate)", "result": 4, "unit": "µg/mL"}, {"measurement": "MIC", "setting": "S. aureus isolates; S. aureus BF9 (clinical isolate)", "result": 4, "unit": "µg/mL"}, {"measurement": "MIC", "setting": "S. aureus isolates; S. aureus BF10 (clinical isolate)", "result": 4, "unit": "µg/mL"}, {"measurement": "MIC", "setting": "S. aureus isolates; S. aureus BF11 (clinical isolate)", "result": 4, "unit": "µg/mL"}, {"measurement": "MIC", "setting": "S. aureus isolates; S. aureus JE2 (MRSA)", "result": 4, "unit": "µg/mL"}, {"measurement": "MIC", "setting": "S. aureus isolates; S. aureus VRS1 (VRSA)", "result": 4, "unit": "µg/mL"}, {"measurement": "MIC against various VRSA, MRSA, VISA, and S. aureus clinical isolates", "setting": "S. aureus isolates; range over the isolates of Table 3", "result": "4 to 8", "unit": "µg/mL"}]}
